Read-outs that look alike come from different tables or passages of the source. Bounds are passed on as bounds.

The Kd is a measure of binding affinity in units of concentration. Broadly, the logP is the decadic logarithm of the partition coefficient of the neutral form, usually between octanol and water. Read a low logP as lower lipophilicity.

Data set [1] deals with cerebrovascular Aβ deposits and neuritic plaques. Kind of data set: Fluorescent staining of fixed aged Tg2576 brain sections. Type of data set: binding. The settings on record: fixed brain sections of aged Tg2576 mice; 1 μM resorufin, 2 μM methoxy-X34. The protocol: Scale bars in A-D: 100 μm.
Tg2576 and littermate wild-type mice at 12-16 months of age were anesthetized with isoflurane and transcardially perfused with PBS. Brains were removed, post-fixed overnight in 4% paraformaldehyde in 0.1 M phosphate buffer (pH 7.4) at 4°C, and preserved in 30% sucrose in 0.1 M phosphate buffer at 4°C. Brains were sectioned coronally (40 μm) on a freezing sliding microtome as described previously. […] Brain sections were washed three times with PBS and once with 50% ethanol in PBS for 5 min each. After three more PBS washes, brain sections were mounted on a slide glass and cover-slipped with Vectashield mounting media (Vector laboratories, Burlingame, CA). Fluorescent staining was visualized using a Nikon Eclipse ME600 digital video microscopy system (Nikon Instruments Inc., Melville, NY) and MetaMorph imaging software (Molecular Devices, Sunnyvale, CA). Cross-sectional area covered by CAA vessels and parenchymal plaques were quantified using ImageJ software (National Institutes of Health, Bethesda, MD) as previously described.

For another data set, the target named is T1, neuritic plaques (Homo sapiens, UniProt P05067).
T1 construct: Aβ1-42 (the predominant species in neuritic plaques); from tissue; host or cells: brain of 16-month-old Tg2576 transgenic mice
T1 sequence (P05067 672-713 limits assumed): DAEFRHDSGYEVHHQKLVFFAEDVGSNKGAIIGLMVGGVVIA
Kind of data set: In situ saturation binding assay in fixed Tg2576 brain sections, fluorescence on neuritic plaques. On the set-up: species or system Tg2576 mice. The settings on record: 16 month-old Tg2576 fixed brain sections, intrinsic fluorescence, 30 min room temperature; read-out: Amyloid binding affinity (KD) on neuritic plaques. How it is done: (§1) Figure 5 In situ binding assay in Tg2576 brain sections. Sixteen month-old Tg2576 mice were perfused with PBS and brains were post-fixed in 4% paraformaldehyde. Coronal brain sections (40 μm thick) were washed three times with PBS and incubated with various concentrations of test compounds (4 sections/concentration; 6 concentrations/compound) at room temperature for 30 min. Brain sections were washed twice with PBS and 50% ethanol in PBS then cover-slipped. […] Scale bar: 100 μm. Fluorescent images of the sensorimotor cortex were taken and the fluorescent intensity on CAA (B) and neuritic plaques (C) was quantified. Saturation binding curves were plotted to obtain the binding affinity (KD) values (see Table 2).

A short description of data set [2]: Octanol-water partition coefficient (logPoct) by fluorometry. Type of data set: physicochemical. Conditions: n-octanol/distilled water, 100 μM, room temperature, mean ± S.E.M, three independent experiments. The protocol:
Octanol-water partition coefficients (logPoct) were determined as described previously with modification. […] The samples were incubated at room temperature with a brief vortex every 5 min for 60 minutes. After centrifugation at 2,000 g for 10 min, octanol and water layers were separately transferred to microcentrifuge tubes. Concentrations were determined by fluorometry at an excitation wave length of 530/25 nm and an emission wave length of 590/30 nm using an ELISA reader (Biotek, Winooski, VT).

The target in data set [3] is CAA deposits (cerebrovascular Aβ aggregates) (Homo sapiens, UniProt P05067). Nature of the data set: In situ saturation binding assay in fixed Tg2576 brain sections, fluorescence on CAA. On the set-up: species or system Tg2576 mice. The settings on record: 16 month-old Tg2576 fixed brain sections, intrinsic fluorescence, 30 min room temperature; read-out: Amyloid binding affinity (KD) on CAA (converted). How it is done: as §1
Chain of CAA deposits (cerebrovascular Aβ aggregates) (P05067 672-711 limits assumed): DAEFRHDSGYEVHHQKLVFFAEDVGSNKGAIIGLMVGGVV

Details of data set [4]: method as in Klunk et. al. [51]. The settings on record: ref Klunk et. al. [51]; cited from earlier work.
For data set [5], the system named is 3D6-positive cerebral arterioles and neuritic plaques. Kind of data set: Fluorescent staining of paraffin-embedded human AD brain sections (3D6 co-labeling). The class given is binding. Conditions: human AD cortical sections, 1 μM resorufin.
The test system of data set [6] is CAA amyloid deposits and neuritic plaques. Nature of the data set: In vivo live imaging through closed cranial window in aged Tg2576 mice. Conditions: 6 mg/kg i.p. per legend and methods.

As to `O=c1ccc2nc3ccc(OCc4ccccc4)cc3oc-2c1` [Benzyloxyresorufin, benzyloxy-resorufin], the “Binding to CAA-laden vessels versus neuritic plaques (fluorescent staining)” value in data set [1] was “preferentially bound CAA-laden vessels but not neuritic plaques”. In addition, the dissociation constant (Kd) at neuritic plaques was over 10 µM; in data set [3] it was 0.473 ± 0.082 µM. For the same molecule, the figures for the logPoct in data set [2] and in data set [2] (listed as benzyloxy-resorufin) were 2.206 ± 0.104 and 2.21, respectively.

For the molecule `CCOc1ccc2nc3ccc(=O)cc-3oc2c1` [Ethoxyresorufin, ethoxy-resorufin], the “Binding to CAA-laden vessels versus neuritic plaques (fluorescent staining)” value in data set [1] is on record as “preferentially bound CAA-laden vessels but not neuritic plaques”. The Kd at neuritic plaques was over 10 µM. Besides, in data set [2], the logP came to 1.94 ± 0.137 and the logPoct came to 1.94. Further, the dissociation constant (Kd) in data set [3] was 0.247 ± 0.135 µM.

As to `COc1cc(C=Cc2ccc(O)c(C(=O)O)c2)ccc1C=Cc1ccc(O)c(C(=O)O)c1` [Methoxy-X34, reference compound], the “Binding to CAA-laden vessels versus neuritic plaques (fluorescent staining)” value in data set [1] is “visualized both cerebrovascular Aβ deposits and neuritic plaques”. In addition, the logPoct in data set [4] is given as 0.19. Also, the Kd at neuritic plaques was 0.219 µM; in data set [3] it was 0.325 µM.

In the case of `O=c1ccc2nc3ccc(O)cc3oc-2c1` [Resorufin, 7-hydroxy-3H-phenoxazin-3-one], in data set [1], the “Binding to CAA-laden vessels versus neuritic plaques (fluorescent staining)” value was “strongly bind CAA-laden cerebral arterioles but not parenchymal neuritic plaques”. Also, the “Staining of 3D6-positive amyloid deposits” value in data set [5] was “marked resorufin-positive staining was noted in the 3D6-positive cerebral arterioles”. Further, in the data set on CAA deposits (i.v. up to 50 mg/kg, aged Tg2576 mice (15 mo)), the “Visualization of CAA deposits after intravenous administration” value is on record as “failed to visualize CAA deposits”. Also, in the data set with CAA deposits (mouse, in vivo), the “Crossing of the BBB” value was “failed to cross the BBB”. Moreover, in data set [2], the logP came to 0.427 ± 0.036 and the logPoct is reported as 0.43.

Consider `COc1cc(/C=C/c2ccc(O)cc2)ccc1/C=C/c1ccc(O)cc1` [methoxy-X04], for which the “Live fluorescent labeling of amyloid deposits by methoxy-X04” value in data set [6] is “labeled Aβ aggregates in both cerebral arteries and parenchymal neuritic plaques”.

The values are drawn from publication PMC3259047 (Molecular Neurodegeneration, 2011).
